Drawing on PubChem BioAssay AID256 (DTP/NCI, 2004), this text covers T/C for 25 compounds.

In the experiment the test system is CD2F1 mice, L1210 leukemia ip, survival T/C. The experiment is described as follows: NCI In Vivo Anticancer Drug Screen. Data for tumor model L1210 Leukemia (intraperitoneal) in CD2F1 (CDF1) mice. The following applies: higher = longer survival. Here is the method:
The antitumor activity of compounds was measured in mice bearing transplantable tumors. Survival or tumor size were measured and the results are expressed as the measurement made in the treated group (T) divided by the measurement made in the vehicle treated control group (C). The tumor model used in this assay is L1210 Leukemia (intraperitoneal) in CD2F1 (CDF1) mice

[1] abbreviates: endpoint: mean survival time, dose: 100.0 mg/kg/injection, schedule: Q04DX003 (ip), vehicle: saline.
Setting [2] is: endpoint: mean survival time, dose: 200.0 mg/kg/injection, schedule: Q04DX003 (ip), vehicle: saline.
Setting [3] is: endpoint: mean survival time, dose: 50.0 mg/kg/injection, schedule: Q01DX009 (ip), vehicle: saline with Tween-80.
Setting [4] is: endpoint: mean survival time, dose: 100.0 mg/kg/injection, schedule: Q01DX009 (ip), vehicle: saline with Tween-80.
The mark [5] stands for this setting: endpoint: mean survival time, dose: 200.0 mg/kg/injection, schedule: Q01DX009 (ip), vehicle: saline with Tween-80.
[6] abbreviates: endpoint: mean survival time, dose: 75.0 mg/kg/injection, schedule: Q01DX001 (ip), vehicle: saline.
Where [7] appears, read: endpoint: mean survival time, dose: 150.0 mg/kg/injection, schedule: Q01DX001 (ip), vehicle: saline.
[8] abbreviates: endpoint: mean survival time, dose: 100.0 mg/kg/injection, schedule: Q01DX001 (ip), vehicle: saline with Tween-80.
Setting [9] is: endpoint: mean survival time, dose: 200.0 mg/kg/injection, schedule: Q01DX001 (ip), vehicle: saline with Tween-80.
The mark [10] stands for this setting: endpoint: mean survival time, dose: 400.0 mg/kg/injection, schedule: Q01DX001 (ip), vehicle: saline with Tween-80.
Where [11] appears, read: endpoint: mean survival time, dose: 100.0 mg/kg/injection, schedule: Q04DX002 (ip), vehicle: saline with Tween-80.
[12] abbreviates: endpoint: mean survival time, dose: 200.0 mg/kg/injection, schedule: Q04DX002 (ip), vehicle: saline with Tween-80.
[13] abbreviates: endpoint: mean survival time, dose: 400.0 mg/kg/injection, schedule: Q04DX002 (ip), vehicle: saline with Tween-80.
Setting [14] is: endpoint: mean survival time, dose: 25.0 mg/kg/injection, schedule: Q04DX003 (ip), vehicle: saline with Tween-80.
The mark [15] stands for this setting: endpoint: mean survival time, dose: 50.0 mg/kg/injection, schedule: Q04DX003 (ip), vehicle: saline with Tween-80.
The mark [16] stands for this setting: endpoint: mean survival time, dose: 100.0 mg/kg/injection, schedule: Q04DX003 (ip), vehicle: saline with Tween-80.
The mark [17] stands for this setting: endpoint: mean survival time, dose: 200.0 mg/kg/injection, schedule: Q04DX003 (ip), vehicle: saline with Tween-80.
The mark [18] stands for this setting: endpoint: mean survival time, dose: 400.0 mg/kg/injection, schedule: Q04DX003 (ip), vehicle: saline with Tween-80.

Where “and” joins values, the source holds several entries; their conditions need not be identical. Equal values may be shown once. Toxic doses and inconclusive results are not listed.

Consider `NC(=O)C1=C(CCCCl)c2ccccc2C1=O`, for which the T/C was 112 % of control (endpoint: mean survival time, dose: 50.0 mg/kg/injection, schedule: Q04DX003 (ip), vehicle: saline); 102 % of control (endpoint: mean survival time, dose: 100.0 mg/kg/injection, schedule: Q01DX001 (ip), vehicle: saline); 115 % of control under setting [1]; 95 % of control (endpoint: mean survival time, dose: 200.0 mg/kg/injection, schedule: Q01DX001 (ip), vehicle: saline); 90 % of control under setting [2].
On to `Cc1cc(C)c(C)c(C(C)O)c1C` (centres undefined), for which the T/C reads like this: under setting [3], 100 % of control; under setting [4], 100 % of control; under setting [5], 97 % of control.
For `CCOC(=O)/C(C#N)=C\c1cc(OC)ccc1OC`, the T/C was 102 % of control (endpoint: mean survival time, dose: 25.0 mg/kg/injection, schedule: Q01DX009 (ip), vehicle: saline with Tween-80); 94 % of control under setting [3]; 104 % of control under setting [4].
In the case of `O=C1c2ccccc2C(=O)c2c(NCCSCCO)ccc(NCCSCCO)c21`, the T/C by setting is: (endpoint: mean survival time, dose: 16.0 mg/kg/injection, schedule: Q01DX009 (ip), vehicle: Klucel (hydroxypropylcellulose) (HPC)) 100 % of control; (endpoint: mean survival time, dose: 32.0 mg/kg/injection, schedule: Q01DX009 (ip), vehicle: Klucel (hydroxypropylcellulose) (HPC)) 102 % of control; (endpoint: mean survival time, dose: 64.0 mg/kg/injection, schedule: Q01DX009 (ip), vehicle: Klucel (hydroxypropylcellulose) (HPC)) 93 % of control; (endpoint: mean survival time, dose: 128.0 mg/kg/injection, schedule: Q01DX009 (ip), vehicle: Klucel (hydroxypropylcellulose) (HPC)) 93 % of control; (endpoint: mean survival time, dose: 256.0 mg/kg/injection, schedule: Q01DX009 (ip), vehicle: Klucel (hydroxypropylcellulose) (HPC)) 102 % of control.
As to `N#Cc1c(N)[nH]c2ccc(Sc3ccccc3)cc12`, the T/C reads like this: (endpoint: median survival time, dose: 6.25 mg/kg/injection, schedule: Q01DX005 (ip), vehicle: saline with Tween-80) 108 % of control; (endpoint: median survival time, dose: 12.5 mg/kg/injection, schedule: Q01DX005 (ip), vehicle: saline with Tween-80) 101 % of control and 109 % of control; (endpoint: median survival time, dose: 25.0 mg/kg/injection, schedule: Q01DX005 (ip), vehicle: saline with Tween-80) 102 % of control and 112 % of control; (endpoint: median survival time, dose: 43.0 mg/kg/injection, schedule: Q01DX005 (ip), vehicle: saline with Tween-80) 112 % of control; (endpoint: median survival time, dose: 43.2 mg/kg/injection, schedule: Q01DX005 (ip), vehicle: saline with Tween-80) 117 % of control; (endpoint: median survival time, dose: 50.0 mg/kg/injection, schedule: Q01DX005 (ip), vehicle: saline with Tween-80) 123 % of control and 110 % of control. In addition, the T/C was 101 % of control (endpoint: median survival time, dose: 100.0 mg/kg/injection, schedule: Q01DX005 (ip), vehicle: saline with Tween-80); 153 % of control and 164 % of control (endpoint: median survival time, dose: 120.0 mg/kg/injection, schedule: Q01DX005 (ip), vehicle: saline with Tween-80).
Consider `CN1C2Cc3cc4c(cc3C1Cc1cc3c(cc12)OCO3)OCO4`, for which the T/C was 100 % of control under setting [6] and 94 % of control under setting [7].
Take `CN1c2ccccc2C2CC(CC#N)CC(=O)C21` (centres undefined): the T/C under setting [8] was 96 % of control, the T/C under setting [9] was 93 % of control and the T/C under setting [10] is 95 % of control.
As for `NC(=O)NC(CC(=O)O)C(=O)O` (centres undefined), the T/C reads like this: under setting [4], 96 % of control; under setting [5], 98 % of control; (endpoint: mean survival time, dose: 400.0 mg/kg/injection, schedule: Q01DX009 (ip), vehicle: saline with Tween-80) 95 % of control.
As to `NC(Cc1ccccc1)C(=O)OCN1C(=O)C2C3C=CC(C2C1=O)C1C2C(=O)N(COC(=O)C(N)Cc4ccccc4)C(=O)C2C31` (centres undefined), the T/C runs as follows: (endpoint: median survival time, dose: 21.6 mg/kg/injection, schedule: Q01DX009 (ip), vehicle: water) 116 % of control; (endpoint: median survival time, dose: 36.0 mg/kg/injection, schedule: Q01DX009 (ip), vehicle: water) 117 % of control; (endpoint: median survival time, dose: 100.0 mg/kg/injection, schedule: Q01DX009 (ip), vehicle: water) 188 % of control.
For `CS(=O)(=O)N1C(=O)c2ccccc2C1=O`, the T/C reads like this: (endpoint: mean survival time, dose: 25.0 mg/kg/injection, schedule: Q04DX002 (ip), vehicle: saline with Tween-80) 101 % of control; (endpoint: mean survival time, dose: 50.0 mg/kg/injection, schedule: Q04DX002 (ip), vehicle: saline with Tween-80) 98 % of control; under setting [11], 93 % of control.
In the case of `COc1c2c(c(OC)c3c(OC)c4ccccc4c(OC)c13)CC(O)CC2` (centres undefined), the T/C by setting is: (endpoint: mean survival time, dose: 12.5 mg/kg/injection, schedule: Q01DX005 (ip), vehicle: Klucel (hydroxypropylcellulose) (HPC)) 92 % of control; (endpoint: mean survival time, dose: 25.0 mg/kg/injection, schedule: Q01DX005 (ip), vehicle: Klucel (hydroxypropylcellulose) (HPC)) 90 % of control; (endpoint: mean survival time, dose: 50.0 mg/kg/injection, schedule: Q01DX005 (ip), vehicle: Klucel (hydroxypropylcellulose) (HPC)) 97 % of control; (endpoint: mean survival time, dose: 100.0 mg/kg/injection, schedule: Q01DX005 (ip), vehicle: Klucel (hydroxypropylcellulose) (HPC)) 92 % of control; (endpoint: mean survival time, dose: 200.0 mg/kg/injection, schedule: Q01DX005 (ip), vehicle: Klucel (hydroxypropylcellulose) (HPC)) 103 % of control; (endpoint: mean survival time, dose: 400.0 mg/kg/injection, schedule: Q01DX005 (ip), vehicle: Klucel (hydroxypropylcellulose) (HPC)) 87 % of control.
Take `CC(C)CC(C)(C)COP(=S)(OCC(C)(C)CC(C)C)OCC(C)(C)CC(C)C`: the T/C under setting [11] is 91 % of control, the T/C under setting [12] is 91 % of control and the T/C under setting [13] was 102 % of control.
As to `COc1cc(OC)c(NC(=O)Oc2ccc(F)cc2Cl)cc1Cl`, the T/C is, setting by setting: under setting [3], 88 % of control; under setting [4], 100 % of control; under setting [5], 103 % of control.
Regarding `O=c1[nH]cnc2c1ncn2CCCCCO`, the T/C under setting [8] was 95 % of control; the T/C under setting [11] was 97 % of control; the T/C under setting [9] is 100 % of control; the T/C under setting [12] is 102 % of control; the T/C under setting [10] is 95 % of control; the T/C under setting [13] was 94 % of control.
On to `CCC(C)C(=O)CN(C)C` (centres undefined), for which the T/C is, setting by setting: under setting [1], 100 % of control; under setting [2], 96 % of control.
Turning to `NS(=O)(=O)OCCCCCCCOS(N)(=O)=O`, under “endpoint: median survival time, dose: 12.5 mg/kg/injection, schedule: Q01DX009 (ip), vehicle: saline with Tween-80”, the T/C was 114 % of control and 116 % of control and 110 % of control.
`CNC(Cc1ccccc1)c1ccccc1` (centres undefined): the T/C was 91 % of control under setting [14]; 93 % of control under setting [15]; 95 % of control and 97 % of control under setting [16].
In the case of `O=C(C=C(C(F)(F)F)C(F)(F)F)c1cccc(C(F)(F)F)c1`, the T/C was 106 % of control under setting [14] and 106 % of control under setting [15].
Consider `COC(OC)C1C=CC=CC=C1`, for which the T/C runs as follows: (endpoint: mean survival time, dose: 100.0 mg/kg/injection, schedule: Q04DX003 (ip), vehicle: saline sonified) 92 % of control; (endpoint: mean survival time, dose: 200.0 mg/kg/injection, schedule: Q04DX003 (ip), vehicle: saline sonified) 94 % of control; (endpoint: mean survival time, dose: 400.0 mg/kg/injection, schedule: Q04DX003 (ip), vehicle: saline sonified) 90 % of control.
For the compound `S=C(S)OCc1ccccc1.[Pt]`, the T/C by setting is: under setting [14], 102 % of control; under setting [15], 102 % of control; under setting [16], 104 % of control; under setting [17], 102 % of control; under setting [18], 104 % of control.
On to `CCCCNP(=S)(NCCCC)NCCCC`, for which the T/C was 94 % of control under setting [11], 94 % of control under setting [12] and 98 % of control under setting [13].
In the case of `COC1=C(OCc2ccccc2)C(=O)OC1C(O)CO` (centres undefined), the T/C is, setting by setting: under setting [8], 98 % of control; under setting [9], 97 % of control; under setting [10], 93 % of control.
Turning to `O=C(CC(O)(C(F)(F)F)C(F)(F)F)C(=O)c1ccc([N+](=O)[O-])cc1`, the T/C is 105 % of control under setting [4] and 94 % of control under setting [5].
As for `Cc1ccc(C(OS(=O)(=O)c2ccc(C)cc2)C(F)(F)F)cc1` (centres undefined), the T/C by setting is: under setting [8], 104 % of control; under setting [16], 107 % of control; under setting [9], 108 % of control; under setting [17], 101 % of control; under setting [10], 106 % of control; under setting [18], 98 % of control.
Regarding `CCc1c(-c2ccccc2)c(CN2CCCCC2)c2ccccn12`, the T/C was 103 % of control under setting [6]; 103 % of control under setting [7]; 113 % of control (endpoint: mean survival time, dose: 300.0 mg/kg/injection, schedule: Q01DX001 (ip), vehicle: saline).
